Data taken from patent US20080095711A1, “Modulators of Pulmonary Hypertension” (priority 2006, published 2008).
“Also recorded” adds a separate entry of the source.

What was measured:
[1] = tested on: rabbit intralobar pulmonary arteries; assay: Promotion of 5,6-EET induced vasoconstriction in rabbit intralobar pulmonary artery rings; settings: compound at 1 μM; rabbit PA rings
Method: To obtain the pulmonary arteries used in the study, adult New Zealand white rabbits (2.4-3.0 kg) were anesthetized with pentobarbital sodium (15 mg/kg iv) for 10 minutes after intramuscular administration of ketamine (8 mg/kg) and xylazine (2 mg/kg). A tracheostomy was performed and a tracheal cannula was inserted. The animals were ventilated via a fixed volume ventilator (Harvard) with room air (tidal volume: 8-10 ml/kg at 15 cycles/min). A catheter was inserted into a carotid artery for administration of heparin (1,000 units, iv) 10 minutes before exsanguination of the animal. After exsanguination, the lungs were removed for isolation of the pulmonary vessels. Intralobar, second order pulmonary arteries (PA) were obtained as described previously (Stephenson A. H., et al., American Journal of Physiology 284: H2153-H2161, 2003). […] Ring tension was measured from one of the support wires attached to an isometric force transducer (FT03, Grass) and recorded continuously on a polygraph (Grass). Each ring was placed under a basal (passive) tension (0.75 to 1.5 g) determined to result in a maximal contractile response to KCl (60 mM). […]

[2] = tested on: rabbit intralobar pulmonary arteries; assay: Inhibition of agonist-induced vasoconstriction in rabbit intralobar pulmonary artery rings (ring tension); settings: compound at 10 μM; for inhibition of 5,6-EET-induced vasoconstriction (concentration-response curve shifted to the right): 5,6-EET 1×10^−8-1×10^−5 M, rabbit PA rings
Method: To obtain the pulmonary arteries used in the study, adult New Zealand white rabbits (2.4-3.0 kg) were anesthetized with pentobarbital sodium (15 mg/kg iv) for 10 minutes after intramuscular administration of ketamine (8 mg/kg) and xylazine (2 mg/kg). A tracheostomy was performed and a tracheal cannula was inserted. The animals were ventilated via a fixed volume ventilator (Harvard) with room air (tidal volume: 8-10 ml/kg at 15 cycles/min). A catheter was inserted into a carotid artery for administration of heparin (1,000 units, iv) 10 minutes before exsanguination of the animal. After exsanguination, the lungs were removed for isolation of the pulmonary vessels. Intralobar, second order pulmonary arteries (PA) were obtained as described previously (Stephenson A. H., et al., American Journal of Physiology 284: H2153-H2161, 2003). Briefly, intralobar PA (1-2 mm OD) were dissected free of extravascular tissue, cut into rings 3-4 mm in length and suspended in water-jacketed tissue chambers containing 10 ml of a physiological salt solution (PSS) composed of (in mM): NaCl (118.3), KCl (4.7), CaCl2 (2.5), MgS04 (1.2), KH2P04 (1.2), NaHC03 (25) Na-EDTA (0.026), and glucose (11.1). The PSS was gassed with 95% O2-5% CO2 (pH: 7.4) and maintained at 37° C. Each ring was mounted between two stainless steel support wires. Ring tension was measured from one of the support wires attached to an isometric force transducer (FT03, Grass) and recorded continuously on a polygraph (Grass). Each ring was placed under a basal (passive) tension (0.75 to 1.5 g) determined to result in a maximal contractile response to KCl (60 mM). In some studies, basal tension was increased with 25 mM KCl to achieve a submaximal increase in active tension. At basal tension, concentrations of 5,6-EET (1×10^−8-1×10^−5 M, delivered in 1 μl of absolute ethanol) were added individually or cumulatively to the rings in 10 ml PSS. Total ethanol concentration in the tissue chambers never exceeded 0.1%. In these experiments, 5,6-EET was added in the presence or absence of the selective 5,6-EET inhibitors 13-HTEC (10 μM) and 14-HTYC (10 μM). […] PA rings were also exposed to various concentrations of PGF2α, (Sigma Chemical Company, St. Louis, Mo.), 14,15-EET (Cayman Chemical, Ann Arbor, Mich.), 5-hydroxytryptamine (5-HT) (Sigma Chemical Company, St. Louis, Mo.), and norepinephrine (NE) (Sigma Chemical Company, St. Louis, Mo.).

[3] = tested on: isolated perfused rabbit lungs; assay: Hypoxia-induced pulmonary vasoconstriction in isolated perfused rabbit lungs (with L-NAME); settings: compound at 10 μM in perfusate, L-NAME 100 μM
Method: Adult New Zealand white rabbits were prepared as described in Example 2. After exsanguination was completed, a midsternal thoracotomy was performed, and the heart and lungs were removed en bloc. Fluid-filled catheters were placed into the PA and the left atrium for lung perfusion and pressure measurements. The isolated lungs were ventilated at 10 ml/kg with 26-30 breaths/min of 15% O2-6% CO2-79% N2 to achieve a perfusate pH of 7.33±0.01, PCO2 of 38.1±2.8 mmHg, and PO2 of 107.3±5.9 mmHg. The lungs were perfused in a humidified chamber (34-37° C.) in a recirculating manner with 150 ml of PSS containing (in mM) 118.3 NaCl, 4.7 KCl, 2.5 CaCl2, 1.2 MgSO4, 1.2 KH2PO4, 25.0 NaHCO3, 0.026 Na-EDTA, and 11.1 glucose (pH 7.4) to which hetastarch was added for maintenance of oncotic pressure. […] Pulmonary arterial (Ppa, inflow), pulmonary venous (Pla, outflow), and airway pressures were recorded continuously. Microvascular pressure (Pmv) was measured by the double occlusion method (Dawson C. A., et al., Journal of Applied Physiology 64: 274-284, 1988; Wurtz M. M., et al., J Appl Physiol 73: 2135-2141, 1992). […] Total PVR was calculated as (Ppa Pla)/perfusate flow rate. Arterial PVR was calculated as (Ppa Pmv)/perfusate flow rate, and venous PVR was calculated as (Pmv Pla)/perfusate flow rate (Stephenson A. H., et al., Am J Physiol 275: H100-H109, 1998).

mice = settings: Pokreisz et al. 2006; cited from earlier work

SMILES: CCCCCC1OC1CCCCCCC/C=C\CCCC(=O)O (stereo not shown) [14,15-EEZE, 14,15-epoxyeicosa-5(Z)-enoic acid]
- effect on vasoconstrictor activity of exogenously administered 5,6-EET (concentration-response curve shifted to the left) [1]: significantly promoted or agonized

SMILES: CCCCCCOCCCCCCCCC#CCCCC(=O)O [Compound 14-HTYC, 14-(hexyloxy)tetradec-5-ynoic acid]
- inhibition of 5,6-EET-induced vasoconstriction (concentration-response curve shifted to the right) [2]: specifically inhibit

SMILES: CCCCCCCOCCCCCCC/C=C\CCCC(=O)O [Compound 13-HTEC, 13-heptyloxytridec-5(Z)-enoic acid]
- effect on pulmonary arterial inflow (Ppa) pressure / hypoxia-induced vasoconstriction [3]: hypoxia-induced vasoconstriction is reduced; also recorded: significantly decreased
- inhibition of 5-hydroxytryptamine (5-HT)-mediated vasoconstriction of PA [2]: is not inhibited; also recorded: does not inhibit
- inhibition of 14,15-EET-mediated vasoconstriction of PA [2]: is not inhibited; also recorded: does not inhibit
- inhibition of PGF2α-mediated vasoconstriction of PA [2]: is not inhibited; also recorded: does not inhibit
- inhibition of norepinephrine (NE)-mediated vasoconstriction of PA [2]: Minimal effects; also recorded: may have partially inhibited
- inhibition of 5,6-EET-induced vasoconstriction (concentration-response curve shifted to the right) [2]: specifically inhibit; also recorded: significantly inhibited

SMILES: C#CCOc1ccccc1CCCCCC(=O)NS(C)(=O)=O [MSPPOH, N-methyl sulfonyl-6-(2-propargyloxyphenyl)hexanamide]
- effect on acute hypoxia-induced pulmonary hypertension (mice): significantly reduced
- effect on chronic hypoxia-induced pulmonary vascular remodeling (mice): significantly reduced
